Values of other authors, collected in article PMC6661809, “Lead optimization for promising monoamine oxidase inhibitor from eugenol for the treatment of neurological disorder: synthesis and in silico based study” (BMC Chemistry, 2019).

biological target: rat MAO-B; conditions: mitochondrial rat brain; cited from earlier work

COc1ccc(C(C)=O)c(O)c1 [Paeonol] and C=CCc1ccc(O)c(-c2cc(CC=C)ccc2O)c1 [Magnolol] are within 1.5-fold of each other in Ki: 54.6 µM for the first, 49.3 µM for the second.

For C=CCc1ccc(O)c(-c2ccc(O)c(CC=C)c2)c1 [Honokiol], the Ki is given as 54.6 µM.

test system: rat MAO-A; set-up: method as in PMID 28771213; conditions: Table 1, literature overview; cited from earlier work

Going from Cc1ccc(C(C)C)cc1O [Carvacrol] to C=CCc1ccc(OC)c(OC)c1 [Methyl-eugenol], the IC50 falls from 15.6 ± 0.49 µM to 7.12 ± 0.46 µM (2.2-fold). The second is the more potent here.

In the case of CC1CCC(C(C)C)C(O)C1 (stereo not drawn) [Menthol], the IC50 is given as 23.1 ± 0.35 µM.

test system: rat MAO-B; set-up: method as in PMID 28771213; conditions: Table 1, literature overview; cited from earlier work

Compared with Cc1ccc(C(C)C)cc1O [Carvacrol], C=CCc1ccc(OC)c(OC)c1 [Methyl-eugenol] is 1.8-fold higher in IC50: 23.42 ± 0.04 µM for the first, 43.23 ± 0.054 µM for the second.

In the case of CC1CCC(C(C)C)C(O)C1 (stereo not drawn) [Menthol], the IC50 is given as 37.4 ± 0.76 µM.

biological target: rat MAO-A; conditions: mitochondrial rat brain; cited from earlier work

COc1ccc(C(C)=O)c(O)c1 [Paeonol] and C=CCc1ccc(O)c(-c2cc(CC=C)ccc2O)c1 [Magnolol] are within 1.5-fold of each other in Ki: 51.1 µM for the first, 35.4 µM for the second.

In the case of C=CCc1ccc(O)c(-c2ccc(O)c(CC=C)c2)c1 [Honokiol], the Ki is listed as 38.2 µM.
